Measurements reported in PMC8949075, “Evaluation of Two Novel Hydantoin Derivatives Using Reconstructed Human Skin Model Episkin^TM: Perspectives for Application as Potential Sunscreen Agents” (Molecules, 2022).

Legend:
[1] = Relative lipophilicity by reversed-phase thin-layer chromatography; type: physicochemical; conditions: RP-TLC, RP-18 plates, methanol/phosphate buffer pH 7.4, extrapolated to 0% methanol
Description: The experimental log P was determined by reversed-phase thin-layer chromatography (RP-TLC). TLC was carried out on plates precoated with silica gel RP-18 F254 (Merck, Darmstadt, Germany). The mobile phases used were the mixtures of methanol (commercially available material of reagent grade) and 100 mM potassium–phosphate buffer (pH = 7.4), with the methanol content ranging from 95 to 65% (v/v) in 5% increments. A total of 10 μL of test compound solutions in methanol (1 mg/mL) were spotted on the plates. The plates were developed in chromatographic chambers previously saturated with solvent for 1 h. After development (at room temperature in a normal chamber: 22 × 22 × 7 cm) and the drying of the plates, the spots were observed under a UV lamp (λ = 254 nm). The Rf values were mean values from two independent chromatographic runs. The experimental Rf was converted into the RM value according to the following equation [66]: RM = log (1/Rf − 1). The calculated values were extrapolated for a 0% methanol concentration (RM0) using the equation: RM = RM0 + bC, where C is the concentration (%, v/v) of methanol in the mobile phase and b is the regression term.

[2] = tested on: Episkin^TM reconstructed human epidermis; assay: Episkin phototoxicity test (UVA 50 J/cm^2; MTT viability, Il-1α release); type: cell-based; conditions: 0.5 and 1 mM; for phototoxic potential / viability of irradiated epidermis: UVA 50 J/cm^2; for tissue viability without UVA exposure: non-irradiated
Description: The MM was provided by the manufacturer.
Compounds JH3 and JH10 (final concentrations of 0.5 and 1 mM) solubilized in ethanol (final concentration of 1% in water) were applied topically on the tissue surface. Chlorpromazine (CPZ, chlorpromazine hydrochloride, C17H19ClN2S·HCl, CAS number: 69-09-0, molecular weight: […], purity: meets USP testing specifications, Sigma-Aldrich, Darmstadt, Germany) (final concentration of 0.5 mM, based on literature data) was used as a positive control, whereas solvent alone served as a negative control.
Duplicate plates were prepared for UVA and dark (controls) exposure purposes. After the treatment period of 2 h, the excess test compound was removed from each well, and the tissues were exposed to UVA at a non-cytotoxic dose of 50 J/cm^2 ([…] at 250 W/m^2) with a solar light simulator equipped with a window glass filter and ID65 filter (Suntest CPS+, Atlas, Linsengericht, Germany). The emitted spectrum contained both UV and visible outputs with a UV cut-on of approx. 320 nm and corresponded to ID65 per ISO 10,977 [74]. The irradiance level between 320 and 400 nm was approximated by the following equation: W/m^2 (320–400 nm) = W/m^2 (300–800 nm) ÷ 11.5. In parallel, the non-irradiated treated tissues were placed in the dark under the same conditions. […] Next, cell viability was assessed using an MTT conversion test and the culture media aliquots were kept frozen (−20 °C) for Il-1α measurement (see 2.3.2. The Episkin^TM skin irritation test method section).

[3] = CHO-K1 cytotoxicity assay (MTT); type: cell-based; conditions: Chinese hamster, concentrations ranging from 1 to 10 µM, read-out: viability of cells
Description: The Chinese hamster ovary CHO-K1 cell line was obtained from the American Type Culture Collection (ATCC CCL-61). The CHO-K1 cell line was cultured in a humidified incubator at 37 °C with 5% CO2, in F-12K Medium (Kaighn’s Modification of Ham’s F-12 Medium) (ATCC) supplemented with 10% fetal bovine serum (FBS; Gibco, Waltham, MA, USA) and antibiotics (1% streptomycin/penicillin salts mixture, Sigma–Aldrich, Darmstadt, Germany).
The cells were seeded at a density of 6 × 10^3 on 96-well plates. […] Test compounds and 4MBC were dissolved in DMSO (solvent, final concentration 0.1%) and ethanol (co-solvent, final concentration 1%). At the end of the incubation period, 10 µL of MTT reagent was added to each well. After 4 h incubation (37 °C, 5% CO2), the medium was discarded, and the formazan produced in the cells appeared as dark crystals in the bottom of the wells. Next, pure DMSO was added to each well. The optical density data of converted dye was measured at 570 nm (A570) on microplate reader. […] The experiment was conducted two times with three repetitions for each condition.

[4] = In vitro microsomal biotransformation; type: in vitro ADME, human; conditions: for t1/2 (in vitro half time): HLMs 0.8 mg/mL; for t1/2 (in vitro half time) / microsomal CLint at 20 µM / half-life at 20 µM: 20 µM, 37 °C; for Biotransformation (main metabolite M, ΔM −28): in the absence or presence of NADPH; for microsomal CLint at 20 µM / half-life at 20 µM: human, liver microsomes, pH 7.4, HLMs 0.8 mg/mL; for microsomal CLint at 20 µM: read-out: Clint (intrinsic clearance); for half-life at 20 µM: read-out: t1/2 (in vitro half time)
Description: The microsome incubation procedure was adapted from the previous studies. Reaction mixtures comprising the test compound JH3 or JH10 (20 µM in methanol), human liver microsomes (HLMs; Sigma Aldrich, Darmstadt, Germany) (0.8 mg/mL), and 100 mM potassium phosphate buffer (pH 7.4) were preincubated before the addition of NADPH-regenerating system (NADP, glucose-6-phosphate and glucose-6-phosphate dehydrogenase in potassium phosphate buffer). The NADPH-regenerating system and buffer components were obtained from Sigma-Aldrich (Darmstadt, Germany). Incubation was conducted for different time points (i.e., 5, 15, and 30 min) with temperature set at 37 °C. The reaction was quenched with ice-cold methanol, followed by the addition of internal standard (IS)–PTX (20 µM). The mixture was then centrifuged.
Supernatant analysis was performed using UHPLC/MS (Waters Corporation, Milford, MA, USA). Two control samples were prepared with each incubation set. The first, a mixture of a test compound and potassium phosphate buffer, and without the addition of HLMs nor the NADPH-regenerating system, was used to exclude the possibility of hydrolysis facilitated by the buffer solution. The second, a mixture of a test compound, potassium phosphate buffer and HLMs, but without the NADPH-regenerating system solution, was designed to evaluate the production of metabolites in the presence of enzymes but the absence of NADPH [14, 82]. The assays were repeated two times. The in vitro half time (t1/2) for JH3 was established from the slope of the linear regression of ln percent parent compound remaining against incubation time. Intrinsic clearance (Clint) was obtained from the equation: Clint = (volume of incubation [µL] (i.e., 250 µL)/protein in the incubation [mg] (i.e., 0.2 mg)) × 0.693/t1/2 [83, 84, 85].

[5] = parameters: method as in PMID 31238526; conditions: 2% (w/w) macrogol formulations; cited from earlier work
[6] = tested on: selected human skin cells; parameters: method as in PMID 31238526; conditions: cited from earlier work
in vitro = conditions: human, 26 mg/cm^2
Description: (§1) The Episkin^TM model (aged 13 days, large/1.07 cm^2 surface area) was provided by Episkin (Lyon, France). The Episkin^TM kit consists of 12 reconstructed epidermis units made of type I collagen matrix, representing the dermis, surfaced with a film of type IV collagen, upon which is laid a stratified and differentiated epidermis derived from human keratinocytes [17]. Upon receipt of the tissues, the culture inserts were removed from the agarose-nutrient solution and transferred into 12-well plates containing 2 mL of the maintenance medium (MM) per well. The MM was provided by the manufacturer. Tissues were then incubated for 24 h at 37 °C in a humidified atmosphere of 5% CO2 before use in the permeation, irritation, or phototoxicity experiments.
(§2) Prior to the irritation experiments, the Episkin^TM inserts were washed with sterile PBS to remove traces of the MM and transferred into new 12-well plates containing 2 mL of fresh MM. […] Sodium dodecyl sulphate (SDS; Sigma-Aldrich, Darmstadt, Germany) (5% in water) and PBS were used as positive and negative controls, respectively. Both controls were applied topically (26 mg/cm^2). Samples were tested in two independent experiments using three tissues for each chemical, positive, or negative control.
(§3) Then, the tissues were placed in new 12-well plates containing 2 mL of the MM per well and incubated for an additional 42 h at 37 °C in a humidified atmosphere of 5% CO2 as post-treatment incubation time. At the end of this period, the culture media of each tissue were collected and stored at −20 °C for Il-1α measurement.
(§4) The cell viability was assessed by a subsequent incubation of the tissues for 3 h with freshly prepared 3-(4,5-dimethylthiazol-2-yl)-2,5-diphenyltetrazolium bromide (MTT; Sigma-Aldrich, Darmstadt, Germany) solution (0.3 mg/mL in assay medium (AM)) in a 12-well plate. Then, a biopsy of the epidermis was done using a puncher (Episkin, Lyon, France), and the precipitated formazan was extracted using 500 µL of acidified isopropanol (Chempur, Piekary Śląskie, Poland) (0.04 N HCl in isopropanol) for 48 h (4 °C). At the end of the extraction period, 200 µL of each sample were transferred to 96-well plates for absorbance measurements at 570 nm (A570) [70, 71, 72, 73]. […] Viability (percent of control) was determined by dividing A570 of experimental wells by A570 of control wells × 100%. The test substance was considered as an irritant when mean tissue viability was equal or less than 50% [16, 17].
(§5) Il-1α measurement was conducted by a classic enzyme-linked immunosorbent assay (ELISA) technique (Cayman Chemical, Ann Arbor, MI, USA). Firstly, 100 µL of the samples were added into a 96-well ready to use microtiter plate (precoated with a monoclonal antibody specific for Il-1α (Il-1α capture antibody). Secondly, 100 µL of an acetylcholinesterase:Fab’ Conjugate (AChE:Fab’) was added to each well. The plate was covered with plastic film and incubated overnight at 4 °C. At the end of the incubation period the contents of each well were removed and rinsed five times with wash buffer. Next, 200 µL of Ellman’s reagent (containing the substrate for AChE) was added to each well, the plate was covered with plastic film and developed in the dark using an orbital shaker. The absorbance of the wells was measured at 410 nm. Il-1α concentrations were then calculated using the standard curve.

[7] = tested on: Episkin^TM reconstructed human epidermis; assay: Episkin skin irritation test (MTT viability, Il-1α release; OECD 439); conditions: for Il-1α release: 26 mg/cm^2 topical, 15 min exposure, 42 h post-incubation; for skin irritation classification: 50% viability cut-off (OECD prediction model)
Description: as §1, §2, §3, §4, §5

Row | Structure (SMILES) | relative lipophilicity value (RM0) [1] | phototoxic potential [2] | viability of irradiated epidermis [2] | tissue viability without UVA exposure [2] | viability at 24 h [3] [%] | t1/2 (in vitro half time) [4] | parent compound detected ([4]; HLMs, 5 min time point) | Biotransformation (main metabolite M, ΔM −28) ([4]; HLMs) | microsomal CLint at 20 µM [4] [µL/min/mg] | half-life at 20 µM [4] [min] | SPFin vitro (sun protection factor) [5] | UVA PF [5] | UVA/UVB Ratio [5] | λc [5] [nm] | cytotoxicity [6] | viability at 15 min (in vitro) [%] | Il-1α release [7] | skin irritation classification [7] | parent compound remaining ([4]; HLMs, 15 min time point)
1 | CCOC(=O)CN1C(=O)/C(=C/c2ccc(OC)cc2)N(CC(=O)OCC)C1=O [JH10, diethyl 2,2′-((Z)-4-(4-methoxybenzylidene)-2,5-dioxoimidazolidine-1,3-diyl)diacetate] | 2.46 | absence of phototoxic potential | no significant difference | no changes in tissue viability | > 75 | <<5 - min | less than 0.5% | - Hydrolysis | > 172 | ~5 | 3.07 ± 0.04 | 2.59 ± 0.23 | 0.84 ± 0.08 | 366 | no cytotoxicity | ≥ 50 | no significant increase | non-irritants | 
2 | CCOC(=O)CN1C(=O)/C(=C/C=C/c2ccc(OC)cc2)N(CC(=O)OCC)C1=O [JH3, diethyl 2,2′-((Z)-4-((E)-3-(4-methoxyphenyl)allylidene)-2,5-dioxoimidazolidine-1,3-diyl)diacetate] | 3.22 | absence of phototoxic potential | no significant difference | no changes in tissue viability | > 75 | 5 - min |  | - Hydrolysis | > 172 | ~5 | 1.68 ± 0.04 | 6.83 ± 0.05 | 4.50 ± 0.32 | 391 | no cytotoxicity | ≥ 50 | no significant increase | non-irritants | Approximately 5%
